According to paper PMC6009911, “Inhibition of human cytochromes P450 2A6 and 2A13 by flavonoids, acetylenic thiophenes and sesquiterpene lactones from Pluchea indica and Vernonia cinerea” (Journal of Enzyme Inhibition and Medicinal Chemistry, 2017):
Where two headings read alike, the source gives them in different places. Marks after values point to notes of the source that are not given here.

How the values were obtained:
[1] = molecular target: T1, CYP2A6 (Homo sapiens, UniProt P11509); settings: cited from earlier work
T1 sequence (P11509 1-494): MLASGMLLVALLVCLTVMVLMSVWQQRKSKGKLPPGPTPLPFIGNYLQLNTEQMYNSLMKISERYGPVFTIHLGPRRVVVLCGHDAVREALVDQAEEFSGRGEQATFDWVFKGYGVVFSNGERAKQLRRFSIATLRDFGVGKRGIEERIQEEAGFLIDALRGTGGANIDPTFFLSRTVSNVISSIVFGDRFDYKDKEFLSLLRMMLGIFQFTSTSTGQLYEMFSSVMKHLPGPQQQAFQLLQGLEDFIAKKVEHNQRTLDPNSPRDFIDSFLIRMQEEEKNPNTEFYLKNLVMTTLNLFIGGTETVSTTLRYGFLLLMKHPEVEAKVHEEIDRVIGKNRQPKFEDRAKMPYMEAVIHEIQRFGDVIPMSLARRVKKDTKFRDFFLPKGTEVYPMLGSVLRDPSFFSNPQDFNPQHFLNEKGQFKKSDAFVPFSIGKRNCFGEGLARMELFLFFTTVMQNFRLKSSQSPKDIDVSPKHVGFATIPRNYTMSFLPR

[2] = molecular target: T2, CYP2A13 (Homo sapiens, UniProt Q16696); assay: Inhibition of CYP2A13-mediated coumarin 7-hydroxylation, enzymatic reconstitution assay; assay type: biochemical; settings: for Ki: coumarin 0–40 µM
T2 construct: made in house
T2 sequence (Q16696 1-494): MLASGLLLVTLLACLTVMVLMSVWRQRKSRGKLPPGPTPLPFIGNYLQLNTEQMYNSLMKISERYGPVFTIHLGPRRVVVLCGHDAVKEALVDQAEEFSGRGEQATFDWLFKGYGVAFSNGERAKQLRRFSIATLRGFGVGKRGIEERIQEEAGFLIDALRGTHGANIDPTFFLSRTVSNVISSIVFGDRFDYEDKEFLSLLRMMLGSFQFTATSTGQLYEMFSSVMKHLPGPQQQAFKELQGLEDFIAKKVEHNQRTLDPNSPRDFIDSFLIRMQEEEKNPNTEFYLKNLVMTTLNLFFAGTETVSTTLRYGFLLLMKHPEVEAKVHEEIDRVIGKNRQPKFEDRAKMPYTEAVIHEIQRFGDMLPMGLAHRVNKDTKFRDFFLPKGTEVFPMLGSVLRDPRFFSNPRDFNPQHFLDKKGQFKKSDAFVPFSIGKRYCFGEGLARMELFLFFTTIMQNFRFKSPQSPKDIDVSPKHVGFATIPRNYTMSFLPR
Protocol: Inhibitory effect of plant extracts, fractions, subfractions and constituents was determined by inhibition assay on CYP2A6- and CYP2A13-mediated coumarin 7-hydroxylation. The recombinant human CYP2A6, CYP2A13 and rat NADPH-dependent cytochrome P450 oxidoreductase (CYPOR) proteins were expressed, purified, according to the methods previously described. […] Rate of 7-hydroxycoumarin product formation was measured on spectrofluorometer (Shimadzu, Kyoto, Japan) at λex = 355 nm, λem = 460 nm. Inhibition effects were determined by incubation with extracts, fractions or purified compounds with coumarin substrate in the reaction mixture and calculated as per cent relative inhibition compared with vehicle control reaction[20] and IC50 values were calculated using GraphPad Prism 5 (GraphPad Software Inc., La Jolla, CA).
(§1) MBI requires NADPH and time to generate reactive intermediate as inhibitor and ultimately inactivates the enzyme. MBI was evaluated by pre-incubation with each test inhibitor in the reaction at different time periods (0, 10, 20 and 30 min) in the presence of NADPH for time-dependent assay, as described. The apparent inactivation constants, KI and Kinact, were obtained from double reciprocal plots of kobs versus inhibitor concentrations by linear regression analysis on GraphPad Prism 5. Methoxsalen was used as a control mechanism-based inhibitor for time- and NADPH-dependent inhibition assays.

[3] = molecular target: T1, CYP2A6; parameters: made in house; settings: ref Prasopthum et al., 2015, cited from earlier work; for Ki: coumarin 0–40 µM
[4] = molecular target: T2, CYP2A13; assay: Mechanism-based (time- and NADPH-dependent) inactivation of CYP2A13; assay type: biochemical; settings: for kinact / KI (inactivation): pre-incubation 0-30 min with NADPH; for KI (inactivation): read-out: CYP2A13 KI (inactivation constant)
Protocol: as §1

[5] = molecular target: T2, CYP2A13; assay: Effects of trapping agents and dialysis on inactivation of CYP2A13; assay type: biochemical; settings: CYP2A13 inhibition reaction mixture, probe coumarin; for activity at 10 µM: compound 10 µM; for activity at 20 µM: compound 20 µM
Protocol: as §1
To explore whether inactivation of CYP2As by thiophenes 9–11 and of CYP2A13 by hirsutinolides 5-8 could be reversed, the removal of reversible inhibitory compounds by dialysis and addition of trapping agents (GSH, semicarbazide, catalase or potassium ferricyanide) in the inhibition reaction mixture were performed. […] Similarly, mechanism-based inactivation of both CYP2A6 and CYP2A13 by thiophenes 9–11 could not be reversed (Table 3).

[6] = read-out: inactivation kinetic values (KI) against CYP2A6, literature values
[7] = 10-min pre-incubation in the presence of NADPH, read-out: IC50 CYP2A13 Pre-incubation
[8] = coincubation, coumarin 2 µM, read-out: IC50 CYP2A13 Coincubation
[9] = read-out: Per cent remaining activity, 70 μM K3Fe(CN)6
[10] = read-out: Per cent remaining activity, 2 mM GSH
[11] = read-out: Per cent remaining activity, 5 mM semicarbazide
[12] = read-out: Per cent remaining activity, 2000 U catalase
[13] = read-out: Per cent remaining activity, Dialysis (+) NADPH
[14] = read-out: Per cent remaining activity, Dialysis (−) NADPH
[15] = read-out: Per cent remaining activity, Pre-incubation
[16] = read-out: CYP2A6 KI (inactivation constant), ref Prasopthum et al., 2015
[17] = 10-min pre-incubation in the presence of NADPH, read-out: IC50 CYP2A6 Pre-incubation
[18] = coincubation, coumarin 2 µM, read-out: IC50 CYP2A6 Coincubation

Compound	CYP2A13 Mode of inhibition [2]	IC50 [2, 7] [µM]	IC50 [2, 8] [µM]	Ki [2] [µM]	CYP2A6 Mode of inhibition [3]	kinact [4] [s⁻¹]	KI (inactivation) [4] [µM]	KI (inactivation) [1, 16] [µM]	CYP2A6 Kinact ([1]; ref Prasopthum et al., 2015)	IC50 [3, 17] [µM]	IC50 [3, 18] [µM]	Ki [3] [µM]	also measured
C#CCN(C)[C@H](C)Cc1ccccc1 [selegiline, reference compound]													KI (inactivation) [1, 6]: 15.6 µM
O=c1cc(-c2ccc(O)cc2)oc2cc(O)cc(O)c12 [Apigenin 1, apigenin]	Mixed type	0.04 ± 0.01	0.05 ± 0.01	0.014 ± 0.002	Mixed type^b								
C=C(C)C(=O)OC1CC(C)C2(O)CCC(C)(/C=C3/OC(=O)C(COC(C)=O)=C31)O2 (stereo not drawn) [Hirsutinolide 5, 8α-(2-methylacryloyloxy)-hirsutinolide-13-O-acetate]	Mixed type	4.5 ± 0.18	16.4 ± 3.1	5.61 ± 0.99	Mixed type^b	0.0005	0.92 ± 0.17	7.45 ± 0.62	0.05 ± 0.01^b	8.64 ± 0.37	22.3 ± 2.5	15.1 ± 2.1	activity at 10 µM [5, 9]: 24.1 ± 0.62%; activity at 10 µM [5, 10]: 28.2 ± 6.54%; activity at 10 µM [5, 11]: 24.4 ± 2.54%; activity at 10 µM [5, 12]: 20.3 ± 6.24%; activity at 10 µM [5, 13]: 18.6 ± 0.94%; activity at 10 µM [5, 14]: 86 ± 6.65%; activity at 10 µM [5, 15]: 29.3 ± 2.53%
C/C=C(/C)C(=O)O[C@H]1Cc2cc3ccc(=O)oc3cc2OC1(C)C [decursinol angelate, reference compound]													KI (inactivation) [1, 6]: 2.42 µM
O=c1c(O)c(-c2ccc(O)c(O)c2)oc2cc(O)cc(O)c12 [Quercetin 4, quercetin]	Competitive	0.74 ± 0.02	0.8 ± 0.01	0.11 ± 0.01	Competitive^b								
CC(=O)OCC1=C2/C(=C\C3(C)CCC(O)(O3)C(C)CC2OC(=O)/C(C)=C/CO)OC1=O (stereo not drawn) [Hirsutinolide 8, 8α-(4-hydroxytigloyloxy)-hirsutinolide-13-O-acetate]	Mixed type	15.9 ± 0.67	36.1 ± 1.39	15.8 ± 2.5	Mixed type^b	0.00167	8.62 ± 0.37	7.64 ± 1.24	0.09 ± 0.01^b	13.1 ± 2.4	64.5 ± 5.8	42.3 ± 8.4	activity at 20 µM [5, 9]: 21.8 ± 1.85%; activity at 20 µM [5, 10]: 25.8 ± 4.2%; activity at 20 µM [5, 11]: 20.7 ± 2.92%; activity at 20 µM [5, 12]: 19.4 ± 1.39%; activity at 20 µM [5, 13]: 18.4 ± 1.1%; activity at 20 µM [5, 14]: 92.4 ± 4.03%; activity at 20 µM [5, 15]: 23.9 ± 3.17%
C=C(CO)C(=O)OC1CC(C)C2(O)CCC(C)(/C=C3/OC(=O)C(COC(C)=O)=C31)O2 (stereo not drawn) [Hirsutinolide 7, 8α-(4-hydroxymethacryloyloxy)-hirsutinolide-13-O-acetate]	Mixed type	10.5 ± 0.49	23.3 ± 1.35	12.6 ± 1.26	Mixed type^b	0.001	8.67 ± 0.15	5.32 ± 0.29	0.03 ± 0.01^b	6.8 ± 0.77	32.7 ± 2.2	20.4 ± 5.4	KI, CYP2A13 (in Figure 2) ([4]; time- and concentration-dependent inactivation): 8.67 ± 0.15; activity at 10 µM [5, 9]: 21.4 ± 2.75%; activity at 10 µM [5, 10]: 18.3 ± 1.54%; activity at 10 µM [5, 11]: 26.6 ± 1.25%; activity at 10 µM [5, 12]: 20.9 ± 5.18%; activity at 10 µM [5, 13]: 21.4 ± 4.45%; activity at 10 µM [5, 14]: 93.3 ± 2.1%; activity at 10 µM [5, 15]: 22.2 ± 1.88%
